PMC4434572, “Identification of novel drugs to target dormant micrometastases” (BMC Cancer, 2015)
Values joined by “and” are separate entries in the source; they are usually repeats but may differ in a detail not shown here. Equal entries are not always repeated. Where two headings read alike, the source gives them in different places.

What was measured:
in vivo = conditions: mouse
MDA-MB-435 cells = experiment: Western blot of protein levels after treatment; format: cell-based
Procedure: Protein content of selected proteins identified by reversed phase protein array (see supplementary materials) as being involved mechanistically in the response to DT320 was assayed by Western blot as described using the following antibodies. The following antibodies were purchased from Cell Signaling Technology (Beverly, MA) and diluted per manufacturer’s directions: Rabbit mAb Anti-Phospho-AKT (Ser473) (D9E) XP® #4060, Rabbit mAb anti-p38 MAPK (D13E1) XP® #8690, Mouse mAb anti-Phospho-SAPK/JNK (Thr183/Tyr185) (G9) #9255, Rabbit mAb anti-Phospho-CHK1 (Ser345) (133D3) #2348, Rabbit polyclonal anti-Phospho-CHK2 (Thr68) Antibody #2661, Rabbit polyclonal anti-BAX Antibody #2772, Rabbit polyclonal anti-Vinculin Antibody #4650, Mouse mAb anti-Cyclin D1 (DCS6) #2926, Rabbit mAb anti-Cyclin E2 (D52F9) b #3741, […], Mouse mAb anti-Cyclin B1 (V152) #4135, Rabbit mAb anti-cleaved PARP (Asp214) (D64E10) XP® #5625, Rabbit mAb anti-cleaved Caspase-3 (Asp175) (5A1E) #9654, Rabbit mAb anti-Nanog (D73G4), #4903; Rabbit mAb anti-Oct4 (C52G3) #2890; and Rabbit mAb anti-Sox2 (D6D9) #3579. Specificity of each antibody is illustrated on the company’s web page. For negative controls, pre-immune rabbit IgG was used. No signal was detected in the control IgG samples. No intensities or contrast were modified, but the appropriate bands were cut out using PhotoShop to prepare composite gel images.
To elucidate the mechanism of DT310 and DT320, cell cycle analysis and Western blotting was performed. The proteins for Western blot were selected from preliminary results using reverse phase protein array (RPPA) for DT320 and DT321 treated MDA-MB-435 and T24 cells. […] Proteins within these clusters showing the largest differences in protein expression and that were related to known anticancer drug action were confirmed by Western blot. Docetaxel was used as a positive control because it is known to induce a cell cycle arrest and apoptosis signature.

DU145 (prostate) = experiment: Proliferation EC50 on Matrigel vs SISgel; format: cell-based
MDA-MB-435-GFP cells = experiment: Flank xenograft model of ECM-suppressed cells co-injected with SISgel; format: in vivo, nu/nu mice; conditions: 45 mg/kg i.p. three times weekly for 3 weeks; 4 weeks after implantation
Procedure: The efficacy of DT320 was assessed using a flank xenograft model of ECM-suppressed cancer cells that we developed, as well as an orthotopic model of “triple-negative” breast cancer. All animal protocols were reviewed and approved by the OUHSC Institutional Animal Care and Use Committee according to criteria established by the NIH Office of Laboratory Animal Welfare, and animals were housed 5 per cage with enrichment (tubes) and wood chips in the AALAC-accredited OUHSC Animal Facility with a 12 h light/dark cycle. Animals had access to water and food ad libatum. Animals were monitored daily by trained facility personnel. In the flank model, GFP-labeled cells were co-injected with SISgel, which produces a suppressed, normalized phenotype that persists after the SISgel is resorbed, but which can re-emerge into active tumor growth after 30–60 days. Animals were all female nu/nu mice (NCI National Laboratory Frederick/Charles River animal production program). An optimized number of 5 × 10^5 GFP-labeled MDA-MB-435 cells in 100 μL DMEM medium, without additives, were mixed with 100 μL of SISgel and were kept on ice until injection to prevent polymerization of the SISgel. […] The cells injected into the flanks remained as a non-growing spot, as assessed by fluorometry of the spots and the lack of mitoses seen in tissue sections, for about 3–5 weeks before some began resuming malignant growth. […]

AGS (gastric) = experiment: Proliferation EC50 on Matrigel vs SISgel; format: cell-based

Row | Structure (SMILES) | MTD (in vivo; BALB/c, ip) [mg/kg] | MTD (in vivo) [mg/kg] | Cyclin D1 (CCND1) expression (MDA-MB-435 cells) | cleaved caspase 3 (MDA-MB-435 cells; 48 h) | EC50 (DU145 (prostate); DU145 on Matrigel, read-out: EC50 Matrigel) [µM] | EC50 (DU145 (prostate); DU145 on SISgel, read-out: EC50 SISgel) [µM] | Ratio (DU145 (prostate); Matrigel/SISgel EC50, DU145) | flank xenografts in which ECM-suppressed cells were extirpated / spots disappeared (MDA-MB-435-GFP cells) | EC50 (AGS (gastric); AGS on Matrigel, read-out: EC50 Matrigel) [µM] | EC50 (AGS (gastric); AGS on SISgel, read-out: EC50 SISgel) [µM] | Ratio (AGS (gastric); Matrigel/SISgel EC50, AGS)
1 | COc1cccc2c1C(=O)c1c(O)c3c(c(O)c1C2=O)C[C@@](O)(C(=O)CO)C[C@@H]3O[C@H]1C[C@H](N)[C@H](O)[C@H](C)O1 [Doxorubicin, reference compound] | 1 | 1 | – | – | – | – | – | – | – | – | –
2 | O=S(=O)([O-])c1cc(O)c2c(O)c(N=Nc3cccc4ccccc34)c(S(=O)(=O)[O-])cc2c1.[Na+].[Na+] [DT320, 4,5-Dihydroxy-3-(1-naphthalenylazo)-2,7-naphthalenedisulfonic acid disodium salt] | – | – | induced | increased signal | 183 | 45.7 | 4.0 | six of eight and 6 of 8 | 104 | 45.1 | 2.3
